The record followed here is US11958842B2, “Substituted phenazines and methods of treating cancer and bacterial diseases” (Adjutec Pharma AS, priority 2016, dated 2024).

Where two headings read alike, the source gives them in different places.

For series [1], the system named is human acute myeloid leukemia cell line MOLM-13. The series can be described thus: Cytotoxicity, WST-1 and nuclear morphology (Example 73). It is filed as cell-based. The protocol:
(§1) All cell culturing media and serum were from Sigma-Aldrich (St. Louis, Mo., USA). Product Nos. are given in parentheses. The human acute myeloid leukemia cell line MOLM-13 was cultured in RPMI medium (R5886) enriched with […] (F7524) and 0.2 mM L-glutamine (G7513). The normal rat kidney epithelial (NRK) and the rat cardiomyoblast (H9c2) cells were cultured in DMEM medium (D6429) enriched with 10% fetal bovine serum (F7524). All cell lines were additionally supplemented with 100 IU/mL penicillin and […] (P0781). The cells were cultured in a humidified atmosphere either under 2% or 20% O2 at 37° C.
(§2) All analogues were dissolved in DMSO (D5879, Sigma-Aldrich) at concentrations between 2.5 and 20 mM before testing. For cytotoxic testing, the MOLM-13 cells were seeded as 20,000 cells/well, while NRK and H9c2 cells were seeded as 5,000 cells/well in 96-well Microplates (#167008, Thermo Scientific™ Nunc™ MicroWell™) with 100 μL medium/well. The cells were exposed to various concentrations of iodinin or its analogues for 24 hrs before the cell proliferation reagent WST-1 was used to assess the viability, in accordance with the manufacturer's instructions (11644807001, Roche Diagnostics, Sigma-Aldrich). The cells were next fixed in 2% buffered formaldehyde (pH 7.4) with the DNA-specific dye Hoechst 33342 (Polysciences Inc.) and assessed for cell death by UV-microscopy based on nuclear morphology. The highest concentration of analogue corresponded to 1% of DMSO, which alone gave less than 7% cell death as judged by nuclear morphology.
(§3) EC50 values were determined by analyses of WST-1 signal results as well as microscopic evaluation of cell death by four-parameter regression analyses using the SigmaPlot software (Systat Software inc. San Jose, Calif.):
(§4) [formula] where Y is the response (WST-1 signal or percent apoptosis), min and max are minimum and maximum response, X is concentration of analogue, EC50 equals the point of inflection, i.e. the point that gives half of maximum response, and h is the Hill's slope of the curve. The two methods gave consistent response curves for each analogue. In the case of Tirapazamine, where its colour interfered with the WST-1 signal, only microscopic evaluation of Hoechst stained cells was used in order to calculate its EC50 values.

The test system of another series is Molm13 cells. The series can be described thus: Anti-AML activity, WST-1 viability (Example 72). It is filed as cell-based. The conditions noted are these: Homo sapiens. The protocol:
Dry powder of analogs were dissolved in DMSO. IPC-18 rat AML cells (Lacaze, N. et al. Leuk. Res. 1983, 7, 145.) were cultured in DMEM medium (Sigma-Aldrich, St. Louis, Mo., USA) supplemented with 10% horse serum (Invitrogen, Carlsbad, Calif., USA), and antibiotics (50 U/mL of penicillin and 0.05 mg/mL streptomycin). Molm13 (Matsuo, Y. et al. Leukemia 1997, 11, 1469.) cells were cultured in RPMI supplemented with antibiotics (50 U/mL of penicillin and 0.05 mg/mL streptomycin) and 10% fetal bovine serum (FBS, Invitrogen, Carlsbad, Calif.) and kept in exponential growth before the experiments. Dilution series of iodinin analogs were added to medium and cell suspension added to reach a final cell concentration of 150 000 cells/ml in 0.1 mL in a 96 well tissue culture plate. […] The cells were incubated with the iodinin analogs for 22 h before WST-1 was added according to the manufacturers protocol, and the cells incubated further in 2 h. Mitochondrial conversion of WST-1 to its colored metabolite was measured by a plate reader at 450 nm, with 620 nm as the reference wavelength. The cells were next fixed by adding 4% buffered formaldehyde (PBS, pH 7.4, supplemented with 0.01 mg/mL Hoechst 33342 for nuclear visualization) to the cell suspension at 1:1 (v/v) ratio (final concentration of formaldehyde:[…]). The cells' nuclear and surface morphology were examined microscopically and results compared with the WST-1 viability assay. The results given in Table I are based on WST-1 data.

The nature of series [2]: Parallel artificial membrane permeability assay (PAMPA). The conditions noted are these: for Permeability: PAMPA class by ranges of Bennion et al.; for LogPeff: PAMPA. The protocol: The Corning Gentest™ pre-Coated parallel artificial membrane permeability assay PAMPA Plate System was from Cording Discovery Labware (Bedford, USA). The compounds were tested in room temperature at 50 μM using PBS as buffer. A total of 300 μl of the compound solution was added to each well of the donor plate, and 200 μl of PBS was added to the receiver filter plate. After incubation for five hours, 50 μl of the donor or acceptor well were injected into a reversed phase HPLC column (Kromasil 100-5 C18 150-4.6 mm, Akzo Nobel, Sweden) connected to a Merck-Hitachi LaChrome HPLC-system (VWR, WestChester, USA) with a L-7455 diode array detector. Mobile phase A was 0.05% aqueous TFA, and mobile phase B was acetonitrile. The flow rate was 1.6 ml/min and compounds eluted between 1 and 4.5 minutes was eluted during a 6.5 min gradient from 90:10% mobile phase A:B to 0:100% mobile phase A:B. The ratio of the compound concentrations in the donor and acceptor compartment was calculated after integration of the peaks at 285 nm. Peff was calculated as described in [Bennion B J, Be N A, McNerney M W, Lao V, Carlson E M, Valdez C A, et al. Predicting a Drug's Membrane Permeability: A Computational Model Validated With in Vitro Permeability Assay Data. The journal of physical chemistry B. 2017; 121(20):5228-37.]. Membrane permeability were classified by the range defined by Bennion et al., allowing for us to divide the compounds into four groups, compounds with high permeability (LogPeff>−5.33), intermediate permeability (LogPeff>−5.66 and <−5.33), low permeability (LogPeff>−6.14 and <−5.66) impermeable (LogPeff<−6.14).

The subject of series [3] is normal rat kidney epithelial (NRK) cells. The series can be described thus: Cytotoxicity, WST-1 and nuclear morphology (Example 73). It is filed as cell-based. The protocol: as §1, §2, §3, §4
Series [4] has as its system rat cardiomyoblast (H9c2) cells. The series is described as above. It is filed as cell-based. The conditions noted are these: H9c2, 19% O2, 24 hours of incubation, read-out: EC50 (μM) H9c2 19% O2. The protocol: as §1, §2, §3, §4
Setting [5] is: Homo sapiens, MOLM-13, 2% O2, 24 hours of incubation, read-out: EC50 (μM) MOLM-13 2% O2.
[6] abbreviates: Homo sapiens, MOLM-13, 19% O2, 24 hours of incubation, read-out: EC50 (μM) MOLM-13 19% O2.
Where [7] appears, read: Molm 13 cells, 2% O2, 24 h of incubation, WST-1, read-out: Molm 13 IC50 2% O2.
The mark [8] stands for this setting: Molm 13 cells, 20% O2, 24 h of incubation, WST-1, read-out: Molm 13 IC50 20% O2.
The mark [9] stands for this setting: 50 μM in PBS, room temperature, five hours.
Where [10] appears, read: Rattus norvegicus, 24 h, read-out: EC50 (μM) NRK 2% O2, NRK, 2% O2, 24 hours of incubation.
Setting [11] is: Rattus norvegicus, 24 h, read-out: EC50 (μM) NRK 19% O2, NRK, 19% O2, 24 hours of incubation.
The mark [12] stands for this setting: MOLM-13, 2% O2, 24 hours of incubation, read-out: EC50 (μM) MOLM-13 2% O2.
Where [13] appears, read: MOLM-13, 19% O2, 24 hours of incubation, read-out: EC50 (μM) MOLM-13 19% O2.
Setting [14] is: MOLM-13, 24 h, read-out: Molm 13 IC50 20% O2.
Setting [15] is: Rattus norvegicus, 2% O2, 24 hours of incubation, read-out: EC50 (μM) NRK 2% O2.
Setting [16] is: Rattus norvegicus, 19% O2, 24 hours of incubation, read-out: EC50 (μM) NRK 19% O2.

For the compound `COc1cccc2nc3c(OC)cccc3nc12` [Example 1a, 1,6-dimethoxyphenazine], the EC50 was found to be 84 ± 6 µM in series [1] (setting [5]) and 72 ± 14 µM in series [1] (setting [6]). For the same compound, the IC50 in the series with Molm13 cells (setting [7]) and with Molm13 cells (setting [8]) was more than 10 µM each time.

As to `Oc1cccc2nc3c(O)cccc3nc12` [Example 1b, 1,6-dihydroxyphenazine], the concentration giving a half-maximal response (EC50) in series [1] (setting [5]) was in the range of 110 to 140 µM; in series [1] (setting [6]), 100 to 120 µM. Also, in series [2], the Permeability result is reported as “Intermediate/high”. In series [2] (setting [9]), this compound had a LogPeff of −5.42.

In the case of `CC(=O)Oc1cccc2c1[n+]([O-])c1cccc(O)c1[n+]2[O-]` [Example 5d, 1-Acetoxy-6-hydroxyphenazine 5,10-dioxide], the results for the IC50 with Molm13 cells (setting [7]) and in the series with Molm13 cells (setting [8]) were 5.61 µM and 5.62 µM, respectively.

Take `O=C(O)COc1cccc2c1[n+]([O-])c1cccc(O)c1[n+]2[O-]` [Example 7, 1-(carboxymethoxy)-6-hydroxyphenazine 5,10-dioxide]: the EC50 in series [1] (setting [5]) came to 61 ± 4 µM; in series [1] (setting [6]) it was 54 ± 7 µM. This compound gave a LogPeff in series [2] (setting [9]) of −7.53.

As to `CN(C)C(=O)Oc1cccc2c1[n+]([O-])c1ccccc1[n+]2[O-]` [Example 8k, 1-((dimethylcarbamoyl)oxy)phenazine 5,10-dioxide], the EC50 in series [3] (setting [10]) was determined as 25 ± 0.6 µM; in series [3] (setting [11]) it was 19 ± 1.3 µM; in series [1] (setting [12]), 2.1 ± 0.16 µM; in series [1] (setting [13]), 1.3 ± 0.15 µM; in series [4] it was 16 ± 2.6 µM. Moreover, in the series with Molm13 cells (setting [14]), the IC50 was determined as 0.32 µM.

For `O=C(Oc1cccc2c1[n+]([O-])c1cccc(OC(=O)N3CCCC3)c1[n+]2[O-])N1CCCC1` [Example 16a, 1,6-bis((pyrrolidine-1-carbonyl)oxy)phenazine 5,10-dioxide], the IC50 in the series with Molm13 cells (setting [14]) was 0.95 µM.

Take `CCCCC(=O)Oc1cccc2c1[n+]([O-])c1cccc(OC(=O)CCCC)c1[n+]2[O-]` [Example 16b, 1,6-bis(pentanoyloxy)phenazine 5,10-dioxide]: the EC50 in series [1] (setting [5]) was 22 ± 2.8 µM; in series [1] (setting [6]) it was 36 ± 0.1 µM; in series [4] (Rattus norvegicus), more than 200 µM. The same compound displayed a LogPeff in series [2] (setting [9]) of −8.66. Further, the IC50 in the series with Molm13 cells (setting [8]) is approximately 40 µM.

For `CCOC(=O)COc1cccc2c1[n+]([O-])c1cccc(OCC(=O)OCC)c1[n+]2[O-]` [Example 16c, 1,6-bis(2-ethoxy-2-oxoethoxy)phenazine 5,10-dioxide], the EC50 in series [3] (setting [15]) was more than 20 µM; in series [3] (setting [16]) it was more than 20 µM; in series [1] (setting [5]) it was 0.79 ± 0.06 µM; in series [1] (setting [6]), 2 ± 0.47 µM; in series [4] (Rattus norvegicus), more than 20 µM. Further, the results for the IC50 with Molm13 cells (setting [7]) and in the series with Molm13 cells (setting [8]) were 3.98 µM and 4.11 µM, respectively.

Regarding `CCOC(=O)Oc1cccc2c1[n+]([O-])c1cccc(OC(=O)OCC)c1[n+]2[O-]` [Example 16e, 1,6-bis((ethoxycarbonyl)oxy)phenazine 5,10-dioxide], the concentration giving a half-maximal response (EC50) was more than 25 µM in series [3] (setting [15]); more than 25 µM in series [3] (setting [16]); 4 ± 0.33 µM in series [1] (setting [5]); 6.1 ± 0.05 µM in series [1] (setting [6]); more than 25 µM in series [4] (Rattus norvegicus). In addition, the values for the IC50 with Molm13 cells (setting [7]) and with Molm13 cells (setting [8]) were 3.5 µM and 2.23 µM, respectively.

Take `CCN(CC)C(=O)COc1cccc2c1[n+]([O-])c1cc(C)c(C)cc1[n+]2[O-]` [Example 50, 1-(2-(diethylamino)-2-oxoethoxy)-7,8-dimethylphenazine 5,10-dioxide]: the EC50 in series [3] (setting [15]) worked out at 52 ± 1.2 µM; in series [3] (setting [16]), 21 ± 0.3 µM; in series [1] (setting [5]), 3.4 ± 0.78 µM; in series [1] (setting [6]), 1.8 ± 0.24 µM; in series [4] (Rattus norvegicus) it was 41 ± 5.7 µM. In addition, in series [2], the Permeability result is “Intermediate/high”. In addition, the LogPeff in series [2] (setting [9]) is on record as −5.42.

On to `Cc1cc2c(cc1C)[n+]([O-])c1c(OC(=O)N3CCCC3)cccc1[n+]2[O-]` [Example 52, 7,8-dimethyl-1-((pyrrolidine-1-carbonyl)oxy)phenazine 5,10-dioxide], for which the EC50 in series [3] (setting [10]) was found to be 8.9 µM; in series [3] (setting [11]) it was 6.6 ± 0.04 µM; in series [1] (setting [12]), 0.78 ± 0.11 µM; in series [1] (setting [13]), 1.5 ± 0.02 µM; in series [4], 8.7 ± 1.2 µM. The compound further yielded a LogPeff in series [2] (setting [9]) of −5.32.

Regarding `[O-][n+]1c2cc3ccccc3cc2[n+]([O-])c2c(O)cccc21` [Example 70, 1-hydroxybenzo[b]phenazine 5,12-dioxide], the LogPeff in series [2] (setting [9]) was −8.04.

For `CN1CCN(C(=O)Oc2cccc3c2[n+]([O-])c2cc4ccccc4cc2[n+]3[O-])CC1` [Example 71, 1-((4-methylpiperazine-1-carbonyl)oxy)benzo[b]phenazine 5,12-dioxide], the half-maximal effective concentration (EC50) in series [3] (setting [10]) was found to be 7.5 ± 0.38 µM; in series [3] (read-out: EC50 (μM) NRK 19% O2, 19% O2, 24 hours of incubation), 2 ± 0.06 µM; in series [1] (setting [12]), 1.8 ± 0.1 µM; in series [1] (setting [13]), 2.8 ± 0.18 µM; in series [4], 2.3 ± 0.05 µM. The Permeability entry in series [2] is “Intermediate/high”. The LogPeff in series [2] (setting [9]) is on record as −5.43.

`Nc1n[n+]([O-])c2ccccc2[n+]1[O-]` [Tirapazamine, reference compound] yielded a LogPeff in series [2] (5 h, 50 μM) of −5.79.
